Measurements published in patent publication US8178506B2, “Oligomeric compounds and compositions for use in modulation of small non-coding RNAs” (Regulus Therapeutics Inc., priority 2003, dated 2012).
In the oligonucleotide strings, read from the 5' end, every base follows the letter of its sugar. An asterisk marks phosphorothioate; unmarked linkages are phosphodiester. Other units and linkages are bracketed, terminal groups are in braces. A string of capitals states the bases alone. e = 2'-O-(2-methoxyethyl) (MOE); [5mC] = 5-methylcytosine; d = 2'-deoxy (DNA)

Tested on: T47D cells
Experiment: Caspase-3 activity assay (apoptosis) in T47D cells
Conditions: T47D cells, 200 nM, 48 hours, relative to untreated control

Row | Substance | Fold Increase over UTC (caspase activity)
1 | 328415 (antisense eT*eG*e[5mC]*e[5mC]*eA*dT*dG*dA*dG*dA*dT*dT*d[5mC]*dA*dA*e[5mC]*eA*eG*eT*e[5mC]) [compound 328415] | 1.1

Tested on: mir-15a pri-miRNA
Experiment: mir-15a pri-miRNA expression in HepG2 cells (real-time RT-PCR)
Type: cell-based, human
Conditions: HepG2, 100 nM
Protocol: Using the real-time RT-PCR methods described in Example 19, the expression levels of the mir-15a pri-miRNA were compared in HepG2 cells treated with a nested series of chimeric gapmer oligomeric compounds, targeting and spanning the entire length of the mir-15a pri-miRNA; these compounds are shown in Table 45, below. […] All cytidine residues are 5-methylcytidines. Using the transfection methods described herein, HepG2 cells were treated with 100 nM of each of these gapmer oligomeric compounds. Total RNA was isolated from HepG2 cells by lysing cells in 1 mL TRIZOL™ (Invitrogen) using the manufacturer's recommended protocols. Real-time RT-PCR analysis was performed using a primer/probe set specific for the mir-15a pri-miRNA molecule to assess the effects of these compounds on expression of the mir-15a pri-miRNA molecule. ISIS 339317 ([…]; SEQ ID NO.: 885) was used as the forward primer, ISIS 339318 (TGGCCTGCACCTTTTCAAA; SEQ ID NO.: 886) was used as the reverse primer, and ISIS 339319 ([…]; SEQ ID NO.: 887) was used as the probe. Total RNA was quantified using RiboGreen™ RNA quantification reagent (Molecular Probes, Inc. Eugene, Oreg.), expression levels observed for each target are normalized to 5.8S rRNA, and values are expressed relative to the untreated control. Inhibition of expression of the mir15a pri-miRNA by these gapmer oligomeric compounds is expressed as a percentage of RNA levels in untreated control cells.

Row | Substance | expression of the mir-15a pri-miRNA molecule
2 | ISIS 347970: 5-10-5 2′-MOE gapmer PS; targets mir-15a pri-miRNA (antisense eA*eT*eA*eT*eG*dG*d[5mC]*d[5mC]*dT*dG*d[5mC]*dA*d[5mC]*d[5mC]*dT*eT*eT*eT*e[5mC]*eA) | significant inhibition of expression of the mir-15a pri-miRNA molecule
3 | ISIS 347980: 5-10-5 2′-MOE gapmer PS; targets mir-15a pri-miRNA (antisense eA*eG*eA*eT*e[5mC]*dA*dG*dA*dT*d[5mC]*d[5mC]*dT*dT*dG*dT*eA*eT*eT*eT*eT) | significant inhibition of expression of the mir-15a pri-miRNA molecule
4 | ISIS 347966: 5-10-5 2′-MOE gapmer PS; targets mir-15a pri-miRNA (antisense eT*eG*e[5mC]*eT*eA*d[5mC]*dT*dT*dT*dA*d[5mC]*dT*d[5mC]*d[5mC]*dA*eA*eG*eG*eT*eT) | significant inhibition of expression of the mir-15a pri-miRNA molecule
5 | ISIS 347973: 5-10-5 2′-MOE gapmer PS; targets mir-15a pri-miRNA (antisense eG*eG*e[5mC]*eA*eG*d[5mC]*dA*d[5mC]*dA*dA*dT*dA*dT*dG*dG*e[5mC]*e[5mC]*eT*eG*e[5mC]) | stimulate an increase in expression levels of the mir-15a pri-miRNA
6 | ISIS 347983: 5-10-5 2′-MOE gapmer PS; targets mir-15a pri-miRNA (antisense eA*eA*eA*eT*eA*dT*dA*dT*dT*dT*dT*d[5mC]*dT*dT*d[5mC]*eA*eG*eA*eA*eG) | significant inhibition of expression of the mir-15a pri-miRNA molecule
7 | ISIS 347964: 5-10-5 2′-MOE gapmer PS; targets mir-15a pri-miRNA (antisense eT*eA*eT*eA*eA*d[5mC]*dA*dT*dT*dG*dA*dT*dG*dT*dA*eA*eT*eA*eT*eG) | significant inhibition of expression of the mir-15a pri-miRNA molecule
8 | ISIS 347977: 5-10-5 2′-MOE gapmer PS; targets mir-15a pri-miRNA (antisense eT*eT*eG*eT*eA*dT*dT*dT*dT*dT*dG*dA*dG*dG*d[5mC]*eA*eG*e[5mC]*eA*e[5mC]) | stimulate an increase in expression levels of the mir-15a pri-miRNA

Same assay, conditions: HepG2 cells, 100 nM, real-time RT-PCR

Row | Substance | Expression of mir-15a pri-miRNA (% UTC)
9 | 347973 (eG*eG*e[5mC]*eA*eG*d[5mC]*dA*d[5mC]*dA*dA*dT*dA*dT*dG*dG*e[5mC]*e[5mC]*eT*eG*e[5mC]) [compound 347973] | 143.3 % UTC
10 | 347977 (eT*eT*eG*eT*eA*dT*dT*dT*dT*dT*dG*dA*dG*dG*d[5mC]*eA*eG*e[5mC]*eA*e[5mC]) [compound 347977] | 111.3 % UTC
11 | 347980 (eA*eG*eA*eT*e[5mC]*dA*dG*dA*dT*d[5mC]*d[5mC]*dT*dT*dG*dT*eA*eT*eT*eT*eT; antisense) [compound 347980] | 3.6 % UTC
12 | 347964 (eT*eA*eT*eA*eA*d[5mC]*dA*dT*dT*dG*dA*dT*dG*dT*dA*eA*eT*eA*eT*eG; antisense) [compound 347964] | 13.7 % UTC
13 | 347965 (eG*e[5mC]*eT*eA*e[5mC]*dT*dT*dT*dA*d[5mC]*dT*d[5mC]*d[5mC]*dA*dA*eG*eG*eT*eT*eT; antisense) [compound 347965] | 86.0 % UTC
14 | 347979 (eA*eG*eA*eT*e[5mC]*d[5mC]*dT*dT*dG*dT*dA*dT*dT*dT*dT*eT*eG*eA*eG*eG; antisense) [compound 347979] | 74.9 % UTC
15 | 347966 (eT*eG*e[5mC]*eT*eA*d[5mC]*dT*dT*dT*dA*d[5mC]*dT*d[5mC]*d[5mC]*dA*eA*eG*eG*eT*eT; antisense) [compound 347966] | 39.2 % UTC
16 | 347970 (eA*eT*eA*eT*eG*dG*d[5mC]*d[5mC]*dT*dG*d[5mC]*dA*d[5mC]*d[5mC]*dT*eT*eT*eT*e[5mC]*eA; antisense) [compound 347970] | 2.2 % UTC
17 | 347968 (e[5mC]*e[5mC]*eT*eG*e[5mC]*dA*d[5mC]*d[5mC]*dT*dT*dT*dT*d[5mC]*dA*dA*eA*eA*eT*e[5mC]*e[5mC]; antisense) [compound 347968] | 8.4 % UTC
18 | 347983 (eA*eA*eA*eT*eA*dT*dA*dT*dT*dT*dT*d[5mC]*dT*dT*d[5mC]*eA*eG*eA*eA*eG; antisense) [compound 347983] | 13.0 % UTC
19 | 347975 (eT*eT*eT*eT*eG*dA*dG*dG*d[5mC]*dA*dG*d[5mC]*dA*d[5mC]*dA*eA*eT*eA*eT*eG; antisense) [compound 347975] | 9.2 % UTC
20 | 347969 (eT*eG*eG*e[5mC]*e[5mC]*dT*dG*d[5mC]*dA*d[5mC]*d[5mC]*dT*dT*dT*dT*e[5mC]*eA*eA*eA*eA; antisense) [compound 347969] | 39.5 % UTC
21 | 347982 (eT*eT*e[5mC]*eA*eG*dA*dA*dG*dA*dT*d[5mC]*dA*dG*dA*dT*e[5mC]*e[5mC]*eT*eT*eG; antisense) [compound 347982] | 82.2 % UTC
22 | 347974 (eT*eG*eA*eG*eG*d[5mC]*dA*dG*d[5mC]*dA*d[5mC]*dA*dA*dT*dA*eT*eG*eG*e[5mC]*e[5mC]; antisense) [compound 347974] | 98.1 % UTC

Tested on: mir-21 miRNA
Experiment: pGL3-mir-21 sensor luciferase assay in HeLa cells
Type: cell-based, human
Conditions: Table 44, pGL3-mir-21 sensor-expressing HeLa cells, 10 nM
Source text: In order to assess the ability of miRNAs to bind predicted miRNA binding sites and regulate the expression of the luciferase reporter, in some embodiments, expression systems based on the pGL3-Control (Promega Corp., Madison Wis.) reporter vector and comprising either a mir-15a, mir-21, or a mir-23b miRNA binding site were developed and used in transient transfections of HeLa cells to determine whether the endogenous mir-15a, mir-21, or mir-23b miRNAs, respectively, could repress luciferase reporter gene expression.
The pGL3-mir-21 sensor plasmid was created by cloning the sequence ([…]; SEQ ID NO: 335), representing a sequence complementary to the mir-21 miRNA, into the Xba site of the pGL3-Control plasmid, placing the potential miRNA-binding site in the 3′UTR of the luciferase reporter. This reporter plasmid was used to transfect HeLa cells and it was observed that the endogenous mir-21 miRNA was able to inhibit luciferase expression from the pGL3-mir-21 sensor plasmid. Thus, to further evaluate the ability of the mir-21 miRNA to bind this target site encoded by the pGL3-mir-21 sensor plasmid, and to assess the ability of oligomeric compounds to interfere with mir-21-mediated silencing, pGL3-mir-21 sensor-expressing HeLa cells were treated with varying concentrations (10 nM or 50 nM) of the following oligomeric compounds: ISIS Number 327917 (SEQ ID NO: 335), a phosphorothioate uniform 2′-MOE oligomeric compound; ISIS Number 338697 ([…]; herein incorporated as SEQ ID NO: 524), a uniform 2′-MOE oligomeric compound targeting the mir-21 pri-miRNA molecule; and ISIS Number 328415 (SEQ ID NO: 524), a 2′-MOE 5-10-5 gapmer oligomeric compound targeting the mir-21 pri-miRNA. The uniform 2′-MOE phosphorothioate oligomeric compound ISIS Number 327901 (SEQ ID NO: 319) targeting an unrelated miRNA (mir-143) was used as a negative control. The data are the average of three trials and are presented in Table 44 as percent untreated control (luciferase plasmid only, not treated with oligomeric compound) luciferase expression, normalized to pRL-CMV levels.
In one embodiment, the oligomeric compounds ISIS Number 327917 (SEQ ID NO: 335), the phosphorothioate uniform 2′-MOE targeting mature mir-21; ISIS Number 358768 (SEQ ID NO: 918), the uniform 2′-MOE targeting the mir-21 pri-miRNA which stimulated the largest increase in pri-miRNA expression levels by real time quantitative RT-PCR; and ISIS Number 345382 (SEQ ID NO: 335), the 5-10-7 phosphorothioate 2′-MOE gapmer targeting mature mir-21 were selected for dose response studies in HeLa cells using the luciferase reporter system described in Example 27. ISIS Number 342683 (SEQ ID NO: 790), representing the scrambled nucleotide sequence of an unrelated PTP1B antisense oligonucleotide, was used as a negative control. HeLa cells expressing the pGL3-mir-21 sensor plasmid (described in Example 27) were treated with 1.9, 5.5, 16.7, and 50 nM of these oligomeric compounds, to assess the ability of oligomeric compounds to interfere with endogenous mir-21-mediated silencing of the pGL3-mir-21 sensor plasmid. The data are presented in Table 50 as percent untreated control (luciferase plasmid only, not treated with oligomeric compound) luciferase expression, normalized to pRL-CMV levels.

Row | Substance | luciferase expression % UTC
23 | 328415 (antisense eT*eG*e[5mC]*e[5mC]*eA*dT*dG*dA*dG*dA*dT*dT*d[5mC]*dA*dA*e[5mC]*eA*eG*eT*e[5mC]) [compound 328415] | 66.0 % UTC
24 | 338697 (antisense TGCCATGAGATTCAACAGTC; all 2'-MOE, all phosphorothioate, methylation of C not given here) [compound 338697] | 87.0 % UTC

Same assay, conditions: Table 44, pGL3-mir-21 sensor-expressing HeLa cells, 50 nM

Row | Substance | luciferase expression % UTC
25 | 328415 (antisense eT*eG*e[5mC]*e[5mC]*eA*dT*dG*dA*dG*dA*dT*dT*d[5mC]*dA*dA*e[5mC]*eA*eG*eT*e[5mC]) [compound 328415] | 104.4 % UTC
26 | 338697 (antisense TGCCATGAGATTCAACAGTC; all 2'-MOE, all phosphorothioate, methylation of C not given here) [compound 338697] | 84.8 % UTC
